These results are taken from patent publication US20080095713A1, “Method of Tumour Imaging” (priority 2004, published 2008).

The test system of series [1] is R3230AC rat mammary adenocarcinoma. Description: In vivo ^13C-MR tumour imaging using hyperpolarised ^13C-pyruvate. As to the method:
R3230AC is a rat mammary adenocarcinoma that can be maintained in female Fischer 344 rats. To establish the animal tumour model, a frozen vial of R32030 cells containing RPMI 1640, 10% FBS and 10% DMSO was rapidly thawed in 37° C. Thereafter, the cell solution was transferred to FBS and increasing volumes of RPMI 1640 were added. Finally, the cell suspension was transferred to a 25 cm^2 growth flask and put into an incubator at 37° C., 5% CO2. Growth media were changed every other day. At the day of rat infection, removal of cells was carried out either by mechanical force or by means of trypsin. Cells were washed using phosphate buffer lacking calcium and magnesium. Trypsin (0.05% trypsin in 0.02% EDTA) was added for 2-5 min. Then, 5 ml FBS was added and the cells were transferred into a beaker containing RPMI 1640 with FCS and antibiotics (100 IU/ml penicillin, 100 IU/ml streptomycin and 2.5 μg/ml amphotericin B). The cell solution was centrifugated and the cell pellet was resuspended in 20 ml RPMI with FBS and antibiotics, centrifugation and resuspension was repeated. The cells were then aliquoted to vials containing 4×10^6 cells/ml RPMI 1640. To obtain donor tumours, female Fischer 344 rats (Charles River, 180-200 g) were anaesthetised and 0.3 ml of the cell suspension was subcutaneously injected in the inguinal region on both sides. 15 and 22 days later, pieces of tumour were prepared as described in F. A. Burgener et al., Invest Radiol 22/6 (1987), 472-478; S. Saini et al., J. Magn. Reson. 129/1 (1997), 35-43). Two incisions were made on the ventral abdomen of recipient female Fischer rats. A tumour piece was inserted into each pocket and the incisions were closed. Rats were brought to imaging 12-14 days after tumour engrafting.
Weighed rats were anaesthetised using isoflurane (2-3%) and kept on a heated table to ensure a body temperature of about 37° C. A catheter was introduced into the tail vein and into the arteria carotis communis sinistra. The rats were transported to the MR machine and placed on a home-built pad that was heated to approx. 37° C. by means of circulating FC-104 Fluorinert. This liquid will not give rise to background signals in ^1H- and ^13C-MR imaging. Anaesthesia was continued by means of 1-2% isoflurane delivered via a long tube to an open-breathing system at a rate of 0.4 L/min. […]
Based on the proton frequency found by the MR system the MR frequency for ^13C1-alanine was calculated according to the following equation: […]
The frequency calculated positioned the MR signal arising from ^13C1-alanine on resonance with ^13C1-lactate on the left and ^13C1-pyruvate resonating on the right of ^13C1-alanine. […]

Series [2] is described as follows: Properties of the injected ^13C1-pyruvate composition at time of injection. Type of series: physicochemical. The text has this:
The frequency calculated positioned the MR signal arising from ^13C1-alanine on resonance with ^13C1-lactate on the left and ^13C1-pyruvate resonating on the right of ^13C1-alanine. An unlocalised MR spectroscopy sequence was run to ensure that the 13C-MR coil and the system MR frequency had been set up correctly. The ^13C-image location was positioned to cover the tumour (slice thickness 10 mm, in plane pixel size 5×5 mm^2). In the reconstruction phase, the image data was zero-filled to result in 2.5×2.5×10 mm^3 resolution. ^13C1-pyruvate in TRIS buffer (90 mM) was injected in a dose of 10 ml/kg during a period of 12 s with a minimum volume of 2 ml into the tail vein and 30 s after the start of the injection (i.e. 18 s after finishing the injection), the chemical shift ^13C-MR sequence was started.
In total 30 different tumours were imaged in 18 rats. 1 rat failed and 3 tumours failed the biological criteria described in the preceding paragraph 5.5. […] The average polarisation of ^13C1-pyruvate at the time of injection was 21.2±2.9% (mean ±SD) and the pH was 8.08±0.14 (mean±SD).

Series [3] is described as follows: DNP polarisation, solid-state ^13C-NMR (enhanced vs thermal equilibrium signal). Conditions: 20 mM Tris(8-carboxy-2,2,6,6-tetra(hydroxyethoxy)methyl-benzo[1,2-d:4,5-d′]bis(1,3)dithiole-4-yl)methyl sodium salt, 1.2 K, 3.35 T, 93.950 GHz. Type of series: physicochemical. As to the method: A 20 mM solution was prepared by dissolving Tris(8-carboxy-2,2,6,6-tetra(hydroxyethoxy)methyl-benzo [1,2-d:4,5-d′]-bis-(1,3)-dithiole-4-yl)methyl sodium salt in ^13C1-pyruvic acid (83.1 mg). The sample was mixed to homogeneity, placed in a sample cup and inserted in the DNP polariser. The sample was polarised under DNP conditions at 1.2 K in a 3.35 T magnetic field under irradiation with microwave (93.950 GHz). The ^13C-NMR signal from the sample was acquired using a Varian Inova-200 NMR spectrometer. The DNP enhancement was calculated from a measurement of the thermal equilibrium ^13C-NMR signal and the enhanced NMR signal. 16% ^13C polarisation was obtained.

Series [4] in a line: T1 relaxation of ^13C-pyruvate in human full blood. Type of series: physicochemical. Conditions: human full blood at 37° C. An excerpt: The amount of alanine, bicarbonate and lactate is dependent on the metabolic status of the tissue under investigation.
Series [5] is described as follows: DNP polarisation, dissolution and liquid-state ^13C-NMR assessment of polarisation. Conditions: 1.2 K, 3.35 T. Type of series: physicochemical. As to the method: A 20 mM solution was prepared by dissolving 5.0 mg of the radical of Example 1 in ^13C1-pyruvic acid (164 μl). The sample was mixed to homogeneity and an aliquot of the solution (41 mg) was placed in a sample cup and inserted in the DNP polariser.
The sample was polarised under DNP conditions at 1.2 K in a 3.35 T magnetic field under irradiation with microwave (93.950 GHz). After 2 hours the polarisation was stopped and the sample was dissolved using a dissolution device according to WO-A-02/37132 in an aqueous solution of sodium hydroxide and tris(hydroxymethyl)-aminomethane (TRIS) to provide a neutral solution of hyperpolarized sodium^13C1-pyruvate. The dissolved sample was rapidly analysed with ^13C-NMR to assess the polarisation and a 19.0 % ^13C polarisation was obtained.
A 15 mM solution was prepared by dissolving the radical of Example 1 (209.1 mg) in a mixture of ^13C1-pyruvic acid (553 mg) and unlabelled pyruvic acid (10.505 g). […]
The sample was polarised under DNP conditions at 1.2 K in a 3.35 T magnetic field under irradiation with microwave (93.950 GHz). […] The filtered solution was rapidly analysed with ^13C-NMR to assess the polarisation, 16.5% ^13C polarisation was obtained. The residual radical concentration was subsequently analysed with a UV spectrophotometer at 469 nm and was determined to be below the detection limit of 0.1 μM.

The mark [6] stands for this setting: rat, i.v. tail vein 10 ml/kg, imaging 30 s after start of injection.

Take `CC(=O)[13C](=O)O` [^13C1-pyruvate]: in series [1] (discrimination of tumour and healthy tissue, 26 out of 26 tumours), the “overall rate of success” value amounted to 100%. Besides, in series [1] (setting [6]), the “metabolic contrast in the tumour area, lactate signal” value is given as 24 out of 26; the “metabolic contrast in the tumour area, lactate signal, alanine corrected” value is reported as 26 out of 26; the “metabolic contrast in the tumour area, lactate signal, pyruvate corrected” value was 26 out of 26. Moreover, the “average polarisation at the time of injection” value in series [2] (mean ±SD, ^13C1-pyruvate in TRIS buffer (90 mM)) amounted to 21.2±2.9%. In addition, the pH in series [2] (mean±SD, injected composition) is on record as 8.08±0.14.

As to `CC(=O)[13C](=O)O` [^13C1-pyruvic acid], the “^13C polarisation” value in series [3] was 16%.

Consider `CC(=O)[13C](=O)O` [^13C-pyruvate], for which the T1 relaxation result in series [4] was “about 42 s”.

For the molecule `CC(=O)[13C](=O)[O-].[Na+]` [sodium ^13C1-pyruvate], the “^13C polarisation” value is recorded as 16.5% in series [5] (15 mM radical of Example 1 in ^13C1-pyruvic acid/unlabelled pyruvic acid, 4 hours, dissolved NaOH/TRIS, 0.5 M pyruvate, radical removed on C18 column) and 19.0% in series [5] (20 mM radical of Example 1 in ^13C1-pyruvic acid, 93.950 GHz, 2 hours, dissolved in NaOH/TRIS, liquid ^13C-NMR).
